Tests used:
Type in all cases: biochemical
[1] = test system: panel of recombinant human P450s; assay: Two-step luminescent P450 screen of luciferin derivatives, whole panel incl. HLM; settings: 50 µM substrate; result in words
Procedure: In addition, it was also of interest to identify substrates with improved selectivity for single P450 enzymes. […] Derivatives useful as P450 substrates may be employed in assays to detect inhibitors for particular P450 enzymes (see Figures 17-18).
(§1) P450s are Supersomes™ purchased from Discovery Labware (BD/Gentest). […] HLM is human liver microsomes.
(§2) 1X substrate concentration: 50 µM.

[2] = target: T1, CYP2C9 (Homo sapiens, UniProt P11712); assay: Two-step luminescent P450 screen of luciferin derivatives; settings: 50 µM substrate, 1 pmole P450; result in words
T1 construct: purchased Discovery Labware (BD/Gentest); host or cells: insect cell expression system (membrane fractions)
T1 sequence (P11712 whole entry): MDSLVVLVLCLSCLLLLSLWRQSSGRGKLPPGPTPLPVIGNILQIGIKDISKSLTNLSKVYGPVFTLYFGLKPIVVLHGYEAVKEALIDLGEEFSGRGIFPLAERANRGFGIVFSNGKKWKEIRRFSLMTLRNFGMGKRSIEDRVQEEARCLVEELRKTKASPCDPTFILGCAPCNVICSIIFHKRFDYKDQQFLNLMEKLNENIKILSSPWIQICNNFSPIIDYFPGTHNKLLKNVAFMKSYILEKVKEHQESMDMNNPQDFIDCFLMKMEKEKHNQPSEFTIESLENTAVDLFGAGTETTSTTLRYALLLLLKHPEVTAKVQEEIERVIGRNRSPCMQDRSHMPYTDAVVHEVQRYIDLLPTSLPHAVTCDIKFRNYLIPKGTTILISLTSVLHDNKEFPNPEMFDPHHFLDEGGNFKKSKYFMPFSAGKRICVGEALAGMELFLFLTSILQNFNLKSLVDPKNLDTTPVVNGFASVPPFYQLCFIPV
Procedure: as §1, §2

[3] = target: T2, CYP4A11 (Homo sapiens, UniProt Q02928); assay: as above; settings: result in words
T2 construct: purchased Discovery Labware (BD/Gentest); host or cells: insect cell expression system (membrane fractions)
T2 sequence (Q02928 5-519): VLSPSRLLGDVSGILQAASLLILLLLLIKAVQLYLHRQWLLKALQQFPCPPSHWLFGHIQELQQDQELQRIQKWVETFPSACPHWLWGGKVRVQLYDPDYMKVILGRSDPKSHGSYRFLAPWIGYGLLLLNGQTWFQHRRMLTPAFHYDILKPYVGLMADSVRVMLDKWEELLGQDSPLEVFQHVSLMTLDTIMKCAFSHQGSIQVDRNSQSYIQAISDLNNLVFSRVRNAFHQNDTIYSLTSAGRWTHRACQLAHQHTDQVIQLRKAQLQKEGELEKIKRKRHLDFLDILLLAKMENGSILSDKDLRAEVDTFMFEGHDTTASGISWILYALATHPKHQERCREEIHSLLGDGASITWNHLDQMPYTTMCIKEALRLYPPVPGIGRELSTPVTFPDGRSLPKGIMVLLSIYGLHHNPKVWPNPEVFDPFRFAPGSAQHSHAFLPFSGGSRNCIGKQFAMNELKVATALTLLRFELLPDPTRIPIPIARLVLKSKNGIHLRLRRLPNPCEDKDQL
Procedure: as §1, §2

P450 activity / selectivity with the derivative as substrate [2] | P450 activity / selectivity with the derivative as substrate [3] | Compound | luminescent signals with the panel of P450 enzymes [1]
preferred substrate | preferred substrate | COc1cc2nc(C3=NC(C(=O)O)CS3)sc2cc1OC (stereo not shown) [5,6-dimethoxyluciferin] | did not produce large luminescent signals with any P450
– | – | Nc1ccc(Oc2ccc3nc(C4=N[C@@H](C(=O)O)CS4)ccc3c2)cc1 [6(p-aminophenyloxy)-quinolylluciferin] | did not produce large luminescent signals with any P450
